Target: T1, Monoglyceride lipase (Homo sapiens, UniProt Q99685)
T1 sequence (Q99685 whole entry): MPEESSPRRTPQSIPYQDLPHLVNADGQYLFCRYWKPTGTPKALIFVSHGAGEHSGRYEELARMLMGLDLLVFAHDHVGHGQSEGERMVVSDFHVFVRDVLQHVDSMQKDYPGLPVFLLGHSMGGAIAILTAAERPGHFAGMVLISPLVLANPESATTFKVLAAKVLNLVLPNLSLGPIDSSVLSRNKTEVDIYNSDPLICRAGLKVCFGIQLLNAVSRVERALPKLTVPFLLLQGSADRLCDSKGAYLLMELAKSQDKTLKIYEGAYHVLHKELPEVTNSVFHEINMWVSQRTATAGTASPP
Test: MAGL Inhibitory Activity Assay
Experimental: MAGL inhibitory activity by determining the enzymatic activity by following the hydrolysis of the natural substrate 2-arachidonoylglycerol (2-AG) resulting in arachidonic acid, which can be followed by mass spectrometry. This assay is hereinafter abbreviated “2-AG assay”. The 2-AG assay was carried out in 384 well polypropylene assay plates. Compound dilutions were made in 100% DMSO in a polypropylene plate in 3-fold dilution steps to give a final concentration range in the assay from 12.5 μM to 0.8 pM. Compound dilutions were added to MAGL protein in assay buffer (50 mM TRIS, 1 mM EDTA, 0.01% (v/v) Tween-20, 2.5% (v/v) DMSO). After shaking, the plate was incubated for 15 min at RT. To start the reaction, 2-arachidonoylglycerol in assay buffer was added. The final concentrations in the assay was 50 pM for MAGL protein and […] 2-arachidonoylglyerol. After shaking and 30 min incubation at RT, the reaction was quenched by the addition of two assay volumes of acetonitrile containing 4 μM of d8-arachidonic acid. The amount of arachidonic acid formed was traced by an online SPE system (Agilent Rapidfire) coupled to a triple quadrupole mass spectrometer.

- IC50: 152 nM
SMILES: COc1cccc(C(=O)N2CCc3c(nn(C)c3-c3cc(Cl)cc(CC(N)=O)c3)[C@H]2C)c1Cl [US20250059185, Example 15]

From BindingDB's records for patent US20250059185 (Hoffmann-La Roche, 2025)
